Experimental data taken from US5922891A, “2-substituted 1,8-dihydroxy-9(10H)-anthracenone pharmaceuticals” (priority 1997, dated 1999).
pIC50: −log10 of the molar value. Like-named read-outs stand apart in the source and are kept apart here.

How the values were obtained:
[1] = Deoxyribose degradation as a measure of hydroxyl radical formation; assay type: biochemical; conditions: 75 μM test compound; controls < 0.1
Method: ^c Deoxyribose degradation as a measure of hydroxyl radical formation
Indicated values are μmoles of malondialdehyde per mmole of deoxyribos
released by 75 μM test compound (controls < 0.1).
Degradation of deoxyribose provides a measurement of the amount of hydroxyl radical formation caused by the test compounds. The assay used to determine degradation of 2-deoxy-D-ribose followed generally the procedures of Gutteridge, J. M. C., Biochem. J., 224: 761-767 (1984) and Laughton, et al., Biochem. Pharmacol., 38: 2859-2865 (1989). The following reagents were added to glass tubes in the order and at the final concentrations listed. 0.3 mL kH2 PO4 --KOH buffer, pH 7.4 (30 mM), 0.2 ml double distilled H2 O, 0.2 ml 2-deoxy-D-ribose (2 mM), 0.2 ml FeCl3.6H2 O (0.1 mM), 0.1 ml 2-substituted anthracenone ([…]). Stock solutions of each of the 2-substituted anthracenone compounds were made up fresh before use. Appropriate blanks and controls using an acetronitrile vehicle were performed.
Final reaction volumes were standardized to 1.0 ml. The reaction mixtures were incubated for 2 hours at 37° C. in a shaking water bath at 50 rpm. 1 ml of 2.8% (w/v) trichloracetic acid and 1 ml of 1% (w/v in 0.05 N NaOH) 2-thiobarbituric acid (TBA) were added, and the samples were heated at 100° C. for 15 minutes and then cooled in an ice bath (5 minutes). 2 ml of each reaction mixture was treated with 0.05 ml of 36% (w/v) HCl and 2 of 1-butanol, followed by vigorous shaking with a vortex mixer (Heidolph) for 15 seconds. The organic layer was separated by centrifugation at 3000 rpm (15 minutes) and absorbance at 532 nm was measured against butanol. Calibration was performed using a malondialdehyde (MDA) standard prepared by hydrolysis of 1,1,3,3-tetraethoxypropane (Gutteridge, J. M. C., Anal. Biochem., 69: 518-526 (1975). TBA reactive material was expressed in terms of μmol MDA per μmol deoxyribose. The results of the assay are provided in Table I.

[2] = Inhibition of AAPH-induced lipid peroxidation in bovine brain phospholipid liposomes; assay type: biochemical
Method: Phospholipids were prepared essentially as described by Gutteridge, J. M. C., (Anal. Biochem., 82: 76-82 (1977)). Bovine brain tissue was cooled on ice, freed from blood vessels and washed repeatedly with 0.15 M NaCl, pH 7.4. The tissue was cut into pieces and then macerated with an ultra-turrax, passed through a fine-meshed sieve, and extracted four times with four times the volume of acetone. The extraction mixture was filtered by suction to remove the acetone, the residue dried under vacuum, and then repeatedly extracted with petroleum ether (40-60) using twice the volume of the original brain homogenate. The combined extracts were filtered, dried at 45° C., and dissolved in ether (one fifth the original brain volume). The mixture was treated with five times the volume of acetone, and the resulting precipitate was collected by suction-filtration, dried and stored under N2 at -20° C. in the dark. Bovine brain phospholipids were weighed into glass tubes and shaken in a vortex mixer (Heidolph) in the presence of five small glass beads (.phi. 4 mm) for 1 minute. The phospholipids were suspended in 0.15 M NaCl, pH 7.4, to a final concentration of 5 mg/ml. The mixture was purged with N2 for 1 minute and vigorously dispersed in a vortex mixer for 5 minutes. The liposomes were allowed to swell for 1 hour at 4° C., and vesicles with a mean size of 1-10 μm were obtained according to the method of Bangham, et al., (J. Mol. Biol., 13:238-252 (1965). The liposomes were stimulated with the azo initiator 2 2'-azobis (2-amidinopropane) hydrochloride according to the method of Gutteridge, J. M. C., (Anal. Biochem. 82:76-82 (1977)).
The following reagents were added to the glass tubes containing stimulating bovine brain phospholipid piposomes in the order and at the final concentrations listed: 0.3 ml HK2 PO4 --KOH buffer, pH 7.4 (30 mM), 0.29 ml double distilled H2 O, 0.2 ml liposomes (1 mg/ml), 0.2 ml FeCl3.H2 O (0.1 mM), 0.01 ml 2-substituted anthracenone compound of the invention (variable concentrations).
Appropriate blanks and controls using the vehicle (acetone) were conducted. The final reaction volumes were standardized to 1.0 ml. The reaction mixtures were incubated for 1 hour at 37° C. in a shaking water bath. […] of 20% (w/v) BHT, 0.5 ml 25% (w/v) HCl and 0.5 ml of 1% 2-thiobarbituric acid were added and the samples were heated at 100° C. for 15 minutes and then cooled in an ice bath (5 minutes). 2 ml of 1-butanol were added and the mixtures were vigorously shaken in a vortex mixer (Heidolph) for 15 seconds. The organic layer was separated by centrifugation at 3000 rpm (15 minutes) and absorbance at 532 nm was measured against butanol.

HaCaT cells = assay: Antiproliferative activity against HaCaT cells (human keratinocyte cell line); assay type: cell-based; conditions: 48 h, read-out: AA IC50 (antiproliferative activity)
Method: HaCaT cells were grown in Dulbecco's modified Eagle's medium (DMEM, No. 041-11954A, Gibco) supplemented with 10% fetal calf serum, penicillin (100 U/mL), and streptomycin (100 μg/mL) in a humidified incubator containing 8% CO2 at 37° C. Cells (2.5·10^4 /1.1 ml per well) were seeded on 24-well multidishes and grown in DMEM. After 24 hours of growth, the medium was replaced with fresh medium and a test compound (0.1-5 μM) was added from freshly made stock solutions, which were prepared in DMSO and diluted with DMEM. The final concentration of DMSO in the culture medium was 0.2%. Controls were performed using DMSO or medium alone. Forty-eight hours after addition of a test compound to the culture, the medium was removed and each well was rinsed with phosphate-buffered saline (PBS, 100 μL). The cells were then incubated with sterile 0.5% trypsin, 0.2% EDTA in PBS for 20 minutes at 37° C. The detached cells from each well were suspended in DMEM and dispersed as single cells by gentle pipetting through an Eppendorf pipette. Cell growth was determined directly by counting the keratinocytes on a Neubauer counting chamber using phase contrast microscopy. Inhibition of cell proliferation was calculated by a comparison of the mean value of the test compound (N=3) with the control (N=6-8) activity: (1-test compound/control)×100.

5-LO in bovine PMNL = target: T1, 5-LO in bovine PMNL (Bos taurus, UniProt F1MQ78); assay: Inhibition of 5-lipoxygenase (5-HETE and LTB4 biosynthesis) in Ca-ionophore-stimulated bovine PMNL; assay type: cell-based; conditions: N = 3 or more
T1 construct: The purified PMNLs were suspended at a concentration of; endogenous in cells; host or cells: polymorphonuclear leukocytes isolated from bovine blood
T1 sequence (F1MQ78 1-674): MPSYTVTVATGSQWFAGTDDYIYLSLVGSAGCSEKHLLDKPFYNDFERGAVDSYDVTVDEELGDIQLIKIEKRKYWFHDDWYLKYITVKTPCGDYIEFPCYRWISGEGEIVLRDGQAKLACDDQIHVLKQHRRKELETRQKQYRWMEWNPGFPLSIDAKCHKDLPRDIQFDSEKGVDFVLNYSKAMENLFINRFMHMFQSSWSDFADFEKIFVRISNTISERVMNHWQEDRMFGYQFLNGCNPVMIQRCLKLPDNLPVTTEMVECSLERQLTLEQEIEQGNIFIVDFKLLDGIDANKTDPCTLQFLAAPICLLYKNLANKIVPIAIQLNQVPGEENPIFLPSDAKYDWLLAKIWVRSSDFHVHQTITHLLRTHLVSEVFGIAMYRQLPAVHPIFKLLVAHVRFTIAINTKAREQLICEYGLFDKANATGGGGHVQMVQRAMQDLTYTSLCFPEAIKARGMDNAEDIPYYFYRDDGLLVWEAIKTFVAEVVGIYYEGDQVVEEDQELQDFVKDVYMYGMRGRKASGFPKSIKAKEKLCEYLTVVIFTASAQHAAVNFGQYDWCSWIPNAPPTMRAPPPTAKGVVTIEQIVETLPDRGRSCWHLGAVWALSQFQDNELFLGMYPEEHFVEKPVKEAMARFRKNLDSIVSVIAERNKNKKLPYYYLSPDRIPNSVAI
Method: Briefly, PMNLs were prepared from sodium EDTA-anticoagulated bovine blood, essentially as described by Walstra, P. et al., (Biochem. Biophys. Acta, 795:499-503 (1984)). Contaminating platelets were removed by repeated centrifugations at 100 g for 20 minutes. […] Cell counts were conducted with a Sysmex micro cell counter CC-130. Preincubation was performed with 2.4 ml of the suspension and 10 μl of a DMSO stock solution of test compounds at the desired concentrations in phosphate buffered saline (PBS) or vehicle control (DMSO at final concentration of 0.4%) for 15 minutes at 37° C. in a shaking water bath at 50 rpm. […] The incubation mixture was held on ice bath for 20 minutes and then centrifuged at 4000 g for 5 minutes at 0° C. The supernatant was diluted with 5 ml of water and passed through a prewashed (10 ml of methanol and 5 ml of water, sequentially) octadecylsilane reversed phase cartridge (Baker). The eicosanoids were eluted with 3 ml of methanol, diluted with 3 ml of water and subjected to reversed phase HPLC analysis using a 250×4 mm column packed with Nucleosil C18 (7 μm particles; Bischoff, Leonberg, Germany). The isocratic elution conditions of LTB4 were tetrahydrofuran (THF)/methanol/water/acetic acid (25+30+45+0.1), adjusted to pH 5.5 with concentrated NH3, at a flow rate of 0.9 ml/min (Kontron 420 pump), monitored at 280 nm with a Kontron 735 LC UV detector. 5-HETE was monitored at 232 nm using methanol/water/acetic acid (77+23+0.1), pH 5.5 and a flow rate 1.0 ml/min. Data were recorded on a MacLab data acquisition system (WissTech, Germany) and analysis was performed using the application Peaks on an Apple Macintosh Quadra 700 computer. Integrated areas of the peaks were compared to a PGB2 internal standard and to external standards of authentic samples. Molar absorption coefficients of Samuelsson et al., Borgeat, P. and B. Samuelsson, (Proc. Natl. Acad. Sci. USA, 76:2148-2152 (1979)), were used for making calculations. Inhibition was calculated by a comparison of the mean value of test compound (n=3) with control (n=6-8) activity: (1-test compound/control)×100.
See Walstra, P. et al., Biochem Biophys. Acta, 795:499-503 (1984); and Dannhardt et al. J. Pharm. Pharmacol., 44:419-424 (1992). […] (Schroder, J. M., J. Invest. Dermatol., 87:624-629 (1986); Tanzer, et al., Arch. Pharm. (Weinheim), 324:841-846 (1991)).

[3] = AAPH-induced, bovine brain phospholipid liposomes, N = 3 or more, read-out: LPO IC50 (inhibition of lipid peroxidation)

Structure (SMILES)	DD (deoxyribose degradation, malondialdehyde released) [1]	pIC50 [2, 3]	pIC50 (HaCaT cells)	pIC50 (5-LO in bovine PMNL)	pIC50 ([2]; NDGA used as the standard, footnote d, read-out: LPO IC50 of the standard)
CN(O)C(=O)CCCCc1ccc2c(c1O)C(=O)c1c(O)cccc1C2 [IVD, N-Hydroxy-N-methyl-5-(9,10-dihydro-1,8-dihydroxy-9-oxo-2-anthracene)pentanamide]	1.36 ± 0.05 μmol of MDA/mmol	4.80			
COc1c(OC)c(OC(C)=O)c2cc(Cl)ccc2c1OC(C)=O [Ionapalene, reference compound]			5.49	6.30	
O=C(O)CCCCCc1ccc2c(c1O)C(=O)c1c(O)cccc1C2 [VA, 6-(9,10-Dihydro-1,8-dihydroxy-9-oxo-2-anthracene) hexanoic acid]	2.29 ± 0.03 μmol of MDA/mmol			4.72	
COC(=O)c1ccc(C(=O)c2ccc3c(c2O)C(=O)c2c(O)cccc2C3)cc1 [XIIB, Methyl 4-[(9,10-Dihydro-1,8-dihydroxy-9-oxo-2-anthracene)oxomethyl]benzoate]	2.07 ± 0.12 μmol of MDA/mmol		5.74	< 4.52	
CN(O)C(=O)CCCCCc1ccc2c(c1O)C(=O)c1c(O)cccc1C2 [VD, N-Hydroxy-N-methyl-6-(9,10-dihydro-1,8-dihydroxy-9-oxo-2-anthracene)hexanamide]		4.82	6.05		
COC(=O)C(Cc1ccccc1)c1ccc2c(c1O)C(=O)c1c(O)cccc1C2 (centres unmarked) [IXB, Methyl 2-(9,10-Dihydro-1,8-dihydroxy-9-oxo-2-anthracene)-3-phenylpropionate]	0.01 ± 0.00 μmol of MDA/mmol		5.74	< 4.52	
CC(Cc1ccc(O)c(O)c1)C(C)Cc1ccc(O)c(O)c1 (centres unmarked) [Nordihydroguaiaretic acid (NDGA), Nordihydroguaiaretic acid, reference compound]					5.70
COC(=O)C(CCc1ccccc1)c1ccc2c(c1O)C(=O)c1c(O)cccc1C2 (centres unmarked) [XB, Methyl 2-(9,10-Dihydro-1,8-dihydroxy-9-oxo-2-anthracene)-4-phenylbutanoate]	0.28 ± 0.03 μmol of MDA/mmol			< 4.52	
CN(O)C(=O)CCc1ccc2c(c1O)C(=O)c1c(O)cccc1C2 [IID, N-Hydroxy-N-methyl-3-(9,10-dihydro-1,8-dihydroxy-9-oxo-2-anthracene)propionamide]	0.92 ± 0.03 μmol of MDA/mmol	4.96			
CN(O)C(=O)CCCc1ccc2c(c1O)C(=O)c1c(O)cccc1C2 [IIID, N-Hydroxy-N-methyl-4-(9,10-dihydro-1,8-dihydroxy-9-oxo-2-anthracene)butanamide]	1.50 ± 0.02 μmol of MDA/mmol	4.43			
COC(=O)CCCc1ccc2c(c1O)C(=O)c1c(O)cccc1C2 [IIIB, Methyl 4-(9,10-Dihydro-1,8-dihydroxy-9-oxo-2-anthracene) butanoate]			5.96	< 4.52	
